We go through three compounds from patent US20090054240A1, “Heteroaroyl-substituted Alanines” (BASF SE, priority 2006, published 2009).

For series [1], the system named is pig weed. The series is described as follows: greenhouse post-emergence herbicidal test. The series is classed as in vivo, Amaranthus retroflexus. The conditions noted are these: application rate 1.0 kg/ha a.s. The text has this:
(§1) The seeds of the test plants were sown separately for each species. For the post-emergence treatment, the test plants were first grown to a height of 3 to 15 cm, depending on the plant habit, and only then treated with the active ingredients which had been suspended or emulsified in water. For this purpose, the test plants were either sown directly and grown in the same containers, or they were first grown separately as seedlings and transplanted into the test containers a few days prior to treatment. The rate of application for the post-emergence treatment was 1.0 kg/ha of a.s. (active substance). Depending on the species, the plants were kept at 10-25° C. or 20-35° C. The test period extended over 2 to 4 weeks. During this time, the plants were tended, and their response to the individual treatments was evaluated. Evaluation was carried out using a scale from 0 to 100. 100 means no emergence of the plants, or complete destruction of at least the aerial parts, and 0 means no damage, or normal course of growth. The plants used in the greenhouse experiments belonged to the following species: [table]

For series [2], the system named is lambsquarters. The series is described as follows: greenhouse post-emergence herbicidal test. The conditions noted are these: application rate 1.0 kg/ha a.s. The series is classed as in vivo, Chenopodium album.
Text: as §1

Series [3] has as its system green foxtail. Briefly: greenhouse post-emergence herbicidal test. The format is in vivo, Setaria viridis. The conditions noted are these: application rate 1.0 kg/ha a.s.
Text: as §1

In turn, `CNC(=O)[C@H](CN)NC(=O)c1cn(C)nc1C(F)(F)F` [Compound 3.6, N-[(1S)-1-(Aminomethyl)-2-(methylamino)-2-oxoethyl]-1-methyl-3-(trifluoromethyl)-1H-pyrazole-4-carboxamide] came in with a melting point of 127 °C.
As for `CNC(=O)[C@H](CNC(=O)OC)NC(=O)c1cn(C)nc1C(F)(F)F` [Compound 3.10, O-Methyl N-[(2S)-3-(methylamino)-2-({[1-methyl-3-(trifluoromethyl)-1H-pyrazol-4-yl]carbonyl}amino)-3-oxopropyl]carbamate], the melting point amounted to 205 °C. Also, the “post-emergence action against pig weed” value in series [1] was “very good”. For the same compound, the “post-emergence action against lambsquarters” value in series [2] was “very good”. Moreover, the “post-emergence action against green foxtail” value in series [3] is given as “very good”.
On to `CNC(=O)[C@H](CNC(=O)OC(C)(C)C)NC(=O)c1cn(C)nc1C(F)(F)F` [Compound 3.11, O-tert-Butyl N-[(2S)-3-(methylamino)-2-({[1-methyl-3-(trifluoromethyl)-1H-pyrazol-4-yl]carbonyl}amino)-3-oxopropyl]carbamate], for which the melting point was 78 °C.

As usually defined, the melting point is the temperature, or range, at which the solid turns liquid.
